Data reported in patent publication US20210403443A1, “SUBSTITUTED 1,2,4-OXADIAZOLE, ITS APPLICATION AND A PHARMACEUTICAL PREPARATION COMPRISING IT” (SVENOX PHARMACEUTICALS LLC, priority 2018, published 2021).
Values after ≈ are worked out from the molar mass of the structure shown. Where two headings read alike, the source gives them in different places.

What was measured:
[1] = system: Mycobacterium tuberculosis CNCTC My 331/88; experiment: microbe, parasite or virus in culture; assay type: cell-based; details: read-out: Minimum inhibiting concentration
M. avium CNCTC My 330/88 = experiment: MIC micromethod in Sula's medium, atypical strain M. avium; assay type: cell-based; details: Mycobacterium avium, read-out: Minimum inhibiting concentration
Experimental: The prepared compounds with general formula I were tested by the Institute of Public Health in Ostrava (Department of Bacteriology and Mycology, Laboratory for Diagnostics of Mycobacteria, Partyzanské náměsti 7, 702 00 Ostrava) under in vitro conditions in liquid Sula's medium and their minimum inhibiting concentrations (MIC) were determined as the biological effect of molecules cannot be predicted. The antimycobacterial activity of the prepared compounds was tested on the collection strain Mycobacterium tuberculosis CNCTC My 331/88, collection atypical strains M. avium CNCTC My 330/88 and M. kansasii CNCTC My 235/80. Their activity was compared with the effect of isoniazide (INH), a commonly used medicament.

[2] = system: M. kansasii CNCTC My 235/80; experiment: microbe, parasite or virus in culture; assay type: cell-based; details: Mycobacterium kansasii, read-out: Minimum inhibiting concentration
[3] = 336 h, M. avium My 330/88, after 14 days of incubation
[4] = 504 h, M. avium My 330/88, after 21 days of incubation

SMILES | MIC ([1]; 336 h) [µM] | MIC ([1]; 504 h) [µM] | MIC (M. avium CNCTC My 330/88; [3]) [µM] | MIC (M. avium CNCTC My 330/88; [4]) [µM] | MIC ([2]; 168 h) [µM] | MIC ([2]; 336 h) [µM] | MIC ([2]; 504 h) [µM] | melting point [°C]
O=[N+]([O-])c1cc(CSc2nc(-c3ccccc3)no2)cc([N+](=O)[O-])c1 [Compound 1, 5-((3,5-Dinitrobenzyl)sulfanyl)-3-phenyl-1,2,4-oxadiazole] | 0.5 (≈ 0.179 µg/mL) | 1 (≈ 0.358 µg/mL) | 250 (≈ 89.6 µg/mL) | 250 (≈ 89.6 µg/mL) | 0.5 (≈ 0.179 µg/mL) | 1 (≈ 0.358 µg/mL) | 1 (≈ 0.358 µg/mL) | 135 to 136
Cc1ccc(-c2noc(SCc3cc([N+](=O)[O-])cc([N+](=O)[O-])c3)n2)cc1 [Compound 2, 5-((3,5-Dinitrobenzyl)sulfanyl)-3-(p-tolyl)-1,2,4-oxadiazole] | 0.5 (≈ 0.186 µg/mL) | 1 (≈ 0.372 µg/mL) | 250 (≈ 93.1 µg/mL) | 250 (≈ 93.1 µg/mL) | 0.5 (≈ 0.186 µg/mL) | 1 (≈ 0.372 µg/mL) | 2 (≈ 0.745 µg/mL) | 150 to 152
COc1ccc(-c2noc(SCc3cc([N+](=O)[O-])cc([N+](=O)[O-])c3)n2)cc1 [Compound 3] | 0.5 (≈ 0.194 µg/mL) | 0.5 (≈ 0.194 µg/mL) | 250 (≈ 97.1 µg/mL) | 250 (≈ 97.1 µg/mL) | 0.5 (≈ 0.194 µg/mL) | 1 (≈ 0.388 µg/mL) | 2 (≈ 0.777 µg/mL) | 
O=[N+]([O-])c1cc(CSc2nc(-c3ccc(Cl)cc3)no2)cc([N+](=O)[O-])c1 [Compound 4] | 0.5 (≈ 0.196 µg/mL) | 1 (≈ 0.393 µg/mL) | 250 (≈ 98.2 µg/mL) | 250 (≈ 98.2 µg/mL) | 1 (≈ 0.393 µg/mL) | 2 (≈ 0.786 µg/mL) | 4 (≈ 1.57 µg/mL) | 
O=[N+]([O-])c1cc(CSc2nc(-c3cccc(Cl)c3)no2)cc([N+](=O)[O-])c1 [Compound 5] | 0.5 (≈ 0.196 µg/mL) | 1 (≈ 0.393 µg/mL) | 250 (≈ 98.2 µg/mL) | 250 (≈ 98.2 µg/mL) | 2 (≈ 0.786 µg/mL) | 2 (≈ 0.786 µg/mL) | 4 (≈ 1.57 µg/mL) | 133 to 135
O=[N+]([O-])c1cc(CSc2nc(-c3ccccc3Cl)no2)cc([N+](=O)[O-])c1 [Compound 6] | 0.5 (≈ 0.196 µg/mL) | 1 (≈ 0.393 µg/mL) | 125 (≈ 49.1 µg/mL) | 125 (≈ 49.1 µg/mL) | 8 (≈ 3.14 µg/mL) | 16 (≈ 6.28 µg/mL) | 32 (≈ 12.6 µg/mL) | 158 to 160
O=[N+]([O-])c1cc(CSc2nc(-c3ccc(Cl)c(Cl)c3)no2)cc([N+](=O)[O-])c1 [Compound 7] | 1 (≈ 0.427 µg/mL) | 1 (≈ 0.427 µg/mL) | 250 (≈ 107 µg/mL) | 250 (≈ 107 µg/mL) | 1 (≈ 0.427 µg/mL) | 1 (≈ 0.427 µg/mL) | 2 (≈ 0.854 µg/mL) | 176 to 177
O=[N+]([O-])c1cc(CSc2nc(-c3ccc(F)cc3)no2)cc([N+](=O)[O-])c1 [Compound 8] | 0.25 (≈ 0.0941 µg/mL) | 0.5 (≈ 0.188 µg/mL) | 250 (≈ 94.1 µg/mL) | 250 (≈ 94.1 µg/mL) | 0.5 (≈ 0.188 µg/mL) | 1 (≈ 0.376 µg/mL) | 2 (≈ 0.753 µg/mL) | 150 to 152
O=[N+]([O-])c1cc(CSc2nc(-c3ccc(Br)cc3)no2)cc([N+](=O)[O-])c1 [Compound 9] | 1 (≈ 0.437 µg/mL) | 1 (≈ 0.437 µg/mL) | 125 (≈ 54.7 µg/mL) | 125 (≈ 54.7 µg/mL) | 1 (≈ 0.437 µg/mL) | 1 (≈ 0.437 µg/mL) | 2 (≈ 0.874 µg/mL) | 175 to 176
O=[N+]([O-])c1cc(CCc2nc(-c3ccccc3)no2)cc([N+](=O)[O-])c1 [Compound 11, 5-(3,5-Dinitrophenethyl)-3-phenyl-1,2,4-oxadiazole] | 4 (≈ 1.36 µg/mL) | 4 (≈ 1.36 µg/mL) | 250 (≈ 85.1 µg/mL) | 250 (≈ 85.1 µg/mL) | 2 (≈ 0.681 µg/mL) | 4 (≈ 1.36 µg/mL) | 8 (≈ 2.72 µg/mL) | 120 to 122
Cc1ccc(-c2noc(CCc3cc([N+](=O)[O-])cc([N+](=O)[O-])c3)n2)cc1 [Compound 12, 5-(3,5-Dinitrophenethyl)-3-(p-tolyl)-1,2,4-oxadiazole] | 2 (≈ 0.709 µg/mL) | 4 (≈ 1.42 µg/mL) | 250 (≈ 88.6 µg/mL) | 250 (≈ 88.6 µg/mL) | 2 (≈ 0.709 µg/mL) | 4 (≈ 1.42 µg/mL) | 4 (≈ 1.42 µg/mL) | 147 to 148
COc1ccc(-c2noc(CCc3cc([N+](=O)[O-])cc([N+](=O)[O-])c3)n2)cc1 [Compound 13] | 0.5 (≈ 0.185 µg/mL) | 1 (≈ 0.37 µg/mL) | 250 (≈ 92.6 µg/mL) | 250 (≈ 92.6 µg/mL) | 0.5 (≈ 0.185 µg/mL) | 1 (≈ 0.37 µg/mL) | 2 (≈ 0.741 µg/mL) | 128 to 129
O=[N+]([O-])c1cc(CCc2nc(-c3ccc(Cl)cc3)no2)cc([N+](=O)[O-])c1 [Compound 14] | > 32 | > 32 | 250 (≈ 93.7 µg/mL) | 250 (≈ 93.7 µg/mL) | > 32 | > 32 | > 32 | 182 to 183
O=[N+]([O-])c1cc(CCc2nc(-c3ccc(Cl)c(Cl)c3)no2)cc([N+](=O)[O-])c1 [Compound 15] | > 32 | > 32 | 250 (≈ 102 µg/mL) | 250 (≈ 102 µg/mL) | 32 (≈ 13.1 µg/mL) | > 32 | > 32 | 154 to 155
O=[N+]([O-])c1cc(CCc2nc(-c3ccc(F)cc3)no2)cc([N+](=O)[O-])c1 [Compound 16] | > 32 | > 32 | 250 (≈ 89.6 µg/mL) | 250 (≈ 89.6 µg/mL) | > 32 | > 32 | > 32 | 169 to 171
